Measured values reported in PMC9736855, “Discovery of 3-Amino-1H-pyrazole-Based Kinase Inhibitors to Illuminate the Understudied PCTAIRE Family” (International Journal of Molecular Sciences, 2022).

Assays:
Assay in all cases: DSF
Type in all cases: binding
PKMYT1 = biological target: T1, PKMYT1 (Homo sapiens, UniProt Q99640)
T1 construct: purchased in-house DSF panel (SGC Frankfurt)
T1 sequence (Q99640 75-362): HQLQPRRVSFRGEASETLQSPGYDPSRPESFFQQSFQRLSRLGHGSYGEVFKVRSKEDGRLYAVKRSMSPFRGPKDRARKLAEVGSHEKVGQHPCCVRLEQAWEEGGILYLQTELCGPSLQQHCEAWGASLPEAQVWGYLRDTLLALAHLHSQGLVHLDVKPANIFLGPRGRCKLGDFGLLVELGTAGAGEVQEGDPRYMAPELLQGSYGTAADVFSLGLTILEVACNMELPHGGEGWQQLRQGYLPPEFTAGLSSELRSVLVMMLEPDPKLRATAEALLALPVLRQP
Procedure: (§1) Recombinant protein kinase domains with a concentration of 2 μM were mixed with a 10 μM compound solution in DMSO, 20 mM HEPES, pH 7.5, and 500 mM NaCl. SYPRO Orange (5000×, Invitrogen) was added as a fluorescence probe (1 µl per mL). Subsequently, temperature-dependent protein unfolding profiles were measured, using the QuantStudio™ 5 realtime PCR machine (Thermo Fisher, Waltham, MA, USA). […] The temperature was raised with a step rate of 3 °C per minute. Data points were analyzed with the internal software (Thermal Shift SoftwareTM Version 1.4, Thermo Fisher) using the Boltzmann equation to determine the inflection point of the transition curve. Differences in melting temperature are given as ΔTm values in °C. Measurements were performed in duplicates.

ABL1 = biological target: T2, ABL1 (Homo sapiens, UniProt P00519)
T2 construct: purchased in-house DSF panel (SGC Frankfurt)
T2 sequence (P00519 229-500): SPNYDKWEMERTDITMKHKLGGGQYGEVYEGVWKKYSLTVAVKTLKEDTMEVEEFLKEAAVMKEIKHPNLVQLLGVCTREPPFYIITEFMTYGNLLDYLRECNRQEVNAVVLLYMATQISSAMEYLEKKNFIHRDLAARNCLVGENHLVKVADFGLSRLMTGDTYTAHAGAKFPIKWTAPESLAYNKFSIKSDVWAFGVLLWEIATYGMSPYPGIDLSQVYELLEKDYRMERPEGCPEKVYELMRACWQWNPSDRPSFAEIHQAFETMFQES
Procedure: as §1

CHEK2 = biological target: T3, CHEK2 (Homo sapiens, UniProt O96017)
T3 construct: purchased in-house DSF panel (SGC Frankfurt)
Procedure: as §1

VRK1 = biological target: T4, VRK1 (Homo sapiens, UniProt Q99986)
T4 construct: purchased in-house DSF panel (SGC Frankfurt)
T4 sequence (Q99986 1-396): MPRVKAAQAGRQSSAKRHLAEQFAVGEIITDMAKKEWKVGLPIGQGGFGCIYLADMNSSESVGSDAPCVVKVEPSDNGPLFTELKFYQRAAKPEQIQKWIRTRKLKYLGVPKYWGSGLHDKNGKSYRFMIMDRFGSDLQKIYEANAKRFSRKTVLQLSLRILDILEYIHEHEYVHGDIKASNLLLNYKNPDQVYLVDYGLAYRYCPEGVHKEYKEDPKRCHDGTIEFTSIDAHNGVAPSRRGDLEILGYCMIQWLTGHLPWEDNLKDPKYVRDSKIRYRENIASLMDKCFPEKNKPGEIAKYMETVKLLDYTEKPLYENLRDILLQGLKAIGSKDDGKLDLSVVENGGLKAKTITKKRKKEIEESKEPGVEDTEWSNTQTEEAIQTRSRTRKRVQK
Procedure: as §1

AAK1 = biological target: T5, AAK1 (Homo sapiens, UniProt Q2M2I8)
T5 construct: purchased in-house DSF panel (SGC Frankfurt)
Procedure: (§2) Recombinant protein kinase domains with a concentration of 2 μM were mixed with a 10 μM compound solution in DMSO, 20 mM HEPES, pH 7.5, and 500 mM NaCl. SYPRO Orange (5000×, Invitrogen) was added as a fluorescence probe (1 µl per mL). Subsequently, temperature-dependent protein unfolding profiles were measured, using the QuantStudio™ 5 realtime PCR machine (Thermo Fisher, Waltham, MA, USA). […] The temperature was raised with a step rate of 3 °C per minute. Data points were analyzed with the internal software (Thermal Shift SoftwareTM Version 1.4, Thermo Fisher) using the Boltzmann equation to determine the inflection point of the transition curve [56]. Differences in melting temperature are given as ΔTm values in °C. Measurements were performed in duplicates.

CAMK2B = biological target: T6, CAMK2B (Homo sapiens, UniProt Q13554)
T6 construct: purchased in-house DSF panel (SGC Frankfurt)
Procedure: as §2

CAMK2D = biological target: T7, CAMK2D (Homo sapiens, UniProt Q13557);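 also: compound tested at 10 µM with 2 µM protein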
T7 construct: purchased in-house DSF panel (SGC Frankfurt)
Procedure: as §2

CSNK1D = biological target: T8, CSNK1D (Homo sapiens, UniProt P48730);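 also: compound tested at 10 µM with 2 µM protein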
T8 construct: purchased in-house DSF panel (SGC Frankfurt)
T8 sequence (P48730 1-294): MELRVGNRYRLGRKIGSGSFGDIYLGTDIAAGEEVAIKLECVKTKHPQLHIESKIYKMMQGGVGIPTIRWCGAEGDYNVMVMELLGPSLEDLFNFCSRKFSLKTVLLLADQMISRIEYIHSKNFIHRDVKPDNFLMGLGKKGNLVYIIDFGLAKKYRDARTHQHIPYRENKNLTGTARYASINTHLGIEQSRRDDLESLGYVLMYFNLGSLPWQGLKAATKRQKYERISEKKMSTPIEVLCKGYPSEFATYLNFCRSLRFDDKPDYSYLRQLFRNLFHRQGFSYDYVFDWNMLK
Procedure: as §2

GSK3B = GSK3B (Homo sapiens, UniProt P49841); design: purchased in-house DSF panel (SGC Frankfurt); settings: 10 μM compound
Method in brief: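 Differential scanning fluorimetry follows unfolding of the protein through fluorescence of a dye that depends on folding state. The value is ΔTm, the melting-temperature shift between compound-free and compound-bound protein. Duplicate measurements.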

CAMKK2 = biological target: T9, CAMKK2 (Homo sapiens, UniProt Q96RR4)
T9 construct: purchased in-house DSF panel (SGC Frankfurt)
Procedure: as §2

PIM3 = biological target: T10, PIM3 (Homo sapiens, UniProt Q86V86);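 also: compound tested at 10 µM with 2 µM protein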
T10 construct: purchased in-house DSF panel (SGC Frankfurt)
Procedure: as §2

EPHA5 = biological target: T11, EPHA5 (Homo sapiens, UniProt P54756);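 also: compound tested at 10 µM with 2 µM protein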
T11 construct: purchased in-house DSF panel (SGC Frankfurt)
T11 sequence (P54756 653-939): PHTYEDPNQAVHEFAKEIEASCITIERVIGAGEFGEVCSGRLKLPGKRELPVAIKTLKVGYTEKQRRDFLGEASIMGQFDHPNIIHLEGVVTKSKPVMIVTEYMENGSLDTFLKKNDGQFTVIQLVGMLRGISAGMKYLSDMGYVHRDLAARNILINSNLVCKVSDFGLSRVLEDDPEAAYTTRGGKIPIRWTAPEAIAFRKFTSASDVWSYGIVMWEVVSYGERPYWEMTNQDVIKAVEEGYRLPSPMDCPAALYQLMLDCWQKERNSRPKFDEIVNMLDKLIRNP
Procedure: as §2

T6 sequence (Q13554 11-303): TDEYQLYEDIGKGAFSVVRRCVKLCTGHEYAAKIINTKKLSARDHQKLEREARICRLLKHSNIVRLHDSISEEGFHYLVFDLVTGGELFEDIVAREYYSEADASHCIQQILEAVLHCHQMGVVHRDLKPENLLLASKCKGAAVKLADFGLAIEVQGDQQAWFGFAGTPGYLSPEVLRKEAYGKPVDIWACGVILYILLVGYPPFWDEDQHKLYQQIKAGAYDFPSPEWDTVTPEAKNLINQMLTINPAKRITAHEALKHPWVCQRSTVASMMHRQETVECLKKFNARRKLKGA
T9 sequence (Q96RR4 161-449): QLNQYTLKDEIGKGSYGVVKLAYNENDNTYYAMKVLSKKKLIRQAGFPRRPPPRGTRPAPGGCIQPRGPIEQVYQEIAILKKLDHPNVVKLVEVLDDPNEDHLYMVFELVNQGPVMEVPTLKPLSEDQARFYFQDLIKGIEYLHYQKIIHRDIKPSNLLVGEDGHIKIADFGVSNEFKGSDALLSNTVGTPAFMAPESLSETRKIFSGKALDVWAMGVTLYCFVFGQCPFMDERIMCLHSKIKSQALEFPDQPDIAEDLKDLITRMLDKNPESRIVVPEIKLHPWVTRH
T3 sequence (O96017 210-531): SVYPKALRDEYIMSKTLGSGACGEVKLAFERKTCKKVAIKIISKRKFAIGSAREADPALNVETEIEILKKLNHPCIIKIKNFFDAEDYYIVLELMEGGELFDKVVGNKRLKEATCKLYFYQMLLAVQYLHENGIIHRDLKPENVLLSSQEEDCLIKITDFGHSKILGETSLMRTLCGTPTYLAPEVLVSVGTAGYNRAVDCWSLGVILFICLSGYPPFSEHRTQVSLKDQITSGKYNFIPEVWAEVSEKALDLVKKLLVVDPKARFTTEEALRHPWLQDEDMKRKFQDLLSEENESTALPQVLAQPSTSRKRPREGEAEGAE
T5 sequence (Q2M2I8 27-365): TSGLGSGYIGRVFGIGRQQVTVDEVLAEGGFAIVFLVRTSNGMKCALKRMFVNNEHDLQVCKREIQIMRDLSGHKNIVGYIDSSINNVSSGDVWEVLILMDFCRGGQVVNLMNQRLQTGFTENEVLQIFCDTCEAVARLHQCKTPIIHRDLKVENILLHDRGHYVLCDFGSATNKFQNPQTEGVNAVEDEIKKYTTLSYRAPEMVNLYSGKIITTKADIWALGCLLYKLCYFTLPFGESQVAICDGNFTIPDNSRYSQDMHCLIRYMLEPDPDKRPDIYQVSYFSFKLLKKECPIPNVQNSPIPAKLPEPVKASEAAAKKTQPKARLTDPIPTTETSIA
Sequence of GSK3B (P49841 35-386): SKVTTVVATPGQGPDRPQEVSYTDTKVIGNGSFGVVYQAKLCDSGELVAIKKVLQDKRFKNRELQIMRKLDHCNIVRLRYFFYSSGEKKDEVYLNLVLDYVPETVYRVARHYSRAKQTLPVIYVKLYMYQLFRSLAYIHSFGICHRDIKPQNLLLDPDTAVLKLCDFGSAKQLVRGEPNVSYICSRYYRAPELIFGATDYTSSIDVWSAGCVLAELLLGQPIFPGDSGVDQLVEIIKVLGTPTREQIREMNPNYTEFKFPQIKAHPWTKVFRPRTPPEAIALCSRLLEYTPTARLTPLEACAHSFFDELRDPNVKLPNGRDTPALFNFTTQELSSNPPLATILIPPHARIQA
T7 sequence (Q13557 11-309): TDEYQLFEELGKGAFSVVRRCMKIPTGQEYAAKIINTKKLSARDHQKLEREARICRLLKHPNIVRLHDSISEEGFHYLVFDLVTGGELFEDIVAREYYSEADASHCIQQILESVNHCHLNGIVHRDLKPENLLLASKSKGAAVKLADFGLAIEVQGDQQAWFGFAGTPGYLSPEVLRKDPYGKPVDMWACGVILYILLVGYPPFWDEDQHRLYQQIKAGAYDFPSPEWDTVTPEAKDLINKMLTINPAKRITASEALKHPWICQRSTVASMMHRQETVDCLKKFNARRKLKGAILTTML

| SMILES | ΔTm PKMYT1 (PKMYT1) [°C] | ΔTm ABL1 (ABL1) [°C] | ΔTm CHEK2 (CHEK2) [°C] | ΔTm VRK1 (VRK1) [°C] | ΔTm AAK1 (AAK1) [°C] | ΔTm CAMK2B (CAMK2B) [°C] | ΔTm CAMK2D (CAMK2D) [°C] | ΔTm CSNK1D (CSNK1D) [°C] | ΔTm at 10 µM (GSK3B) [°C] | ΔTm CAMKK2 (CAMKK2) [°C] | ΔTm PIM3 (PIM3) [°C] | ΔTm EPHA5 (EPHA5) [°C] |
| --- | --- | --- | --- | --- | --- | --- | --- | --- | --- | --- | --- | --- |
| CC(C)OC(=O)c1cc(Nc2ccnc(NCc3ccc(NC(=O)OC(C)(C)C)cc3)n2)n[nH]1 [42d, isopropyl 3-((2-((4-((tert-butoxycarbonyl)amino)benzyl)amino)pyrimidin-4-yl)amino)-1H-pyrazole-5-carboxylate] | -3.2 | 1.0 | 0.6 | 0.5 | 0.5 | -1.2 | -0.4 | 0.8 | 4.7 | -0.6 | -1.1 | -0.6 |
| CC(C)(C)OC(=O)Nc1ccc(CNc2nccc(Nc3cc(C(=O)OC(C)(C)C)[nH]n3)n2)cc1 [43d, tert-butyl 3-((2-((4-((tert-butoxycarbonyl)amino)benzyl)amino)pyrimidin-4-yl)amino)-1H-pyrazole-5-carboxylate] | -2.0 | 1.6 | 1.3 | 0.9 | 1.0 | -0.5 | -0.1 | 1.0 | 2.9 | 0.1 | -1.6 | -2.7 |
| COC(=O)c1cc(Nc2ccnc(NCCOCCNC(=O)OC(C)(C)C)n2)[nH]n1 [21d, methyl 5-((2-((2-(2-((tert-butoxycarbonyl)amino)ethoxy)ethyl)amino)pyrimidin-4-yl)amino)-1H-pyrazole-3-carboxylate] | 1.0 | 1.2 | 2.5 | 1.0 | 4.1 | 0.2 | 0.8 | 0.2 | 6.2 | 0.5 | 0.0 | 0.2 |
| N#CCc1ccc(Nc2nccc(Nc3cc(C4CC4)[nH]n3)n2)cc1 [compound 1, reference compound] | 1.0 | 8.7 | 8.6 | 5.9 | 13.8 | 4.4 | 4.5 | 3.1 | 14 | 12.0 | 3.8 | 6.3 |
| COC(=O)c1cc(Nc2ccnc(NCc3ccc(NC(=O)OC(C)(C)C)cc3)n2)[nH]n1 [21i, methyl 5-((2-((4-((tert-butoxycarbonyl)amino)benzyl)amino)pyrimidin-4-yl)amino)-1H-pyrazole-3-carboxylate] | 0.2 | 0.7 | 0.6 | 1.1 | 2.0 | 0.6 | 0.6 | 0.4 | 7.2 | 1.1 | -0.4 | 0.2 |
